Experimental data as given in patent US20240316055A1, “METHODS FOR TREATING LEIGH SYNDROME” (DBCC Research, LLC, priority 2023, published 2024).

Key:
[1] = tested on: ECHS1 Fibroblast cells; assay: Galactose potency screen (cell viability, DAPI nuclei count); format: cell-based; details: galactose potency screen, FIG. 2
Protocol: Galactose Screen: Compound library plates were obtained from Prestwick/Selleck and SPECS (7,591 compounds total, 27 compounds/plate/concentration at 1 μM and 10 μM, 384-well plates). ECHS1 Fibroblast cells were harvested at 95% confluent with trypsin and suspended in Dulbecco's Modified Eagle Medium (DMEM)+10% Fetal Bovine Serum (FBS). The suspension was centrifuged at 200x g for 5 min. The suspension was discarded and the pellet was resuspended in the 5.5 mM galactose medium (DMEM+10% FBS+5.5 mM galactose) and seeded at 750 cells/well (50 μL) into the compound wells (1 μM and 10 μM). For the positive control experiment, the cells were suspended in 5.5 mM galactose medium+5.5 mM glucose+0.01% DMSO and seeded at 750 cells/well (50 μL) into the blank wells. For the negative control experiment, the cells were suspended in the 5.5 mM galactose medium+0.01% DMSO and seeded at 750 cells/well (50 μL) into the blank wells. The seeded plates were incubated at 37° C. for 96 hours, then 15 μL/well of 16% paraformaldehyde solution was added to the plates and allowed to sit for 15 min to fix the cells. The plates were then washed 3x with 50 μL/well of phosphate-buffered saline (PBS). The cells were stained with […] of a solution of 4,6-diamidino-2-phenylindole dilactate (DAPI, Invitrogen) and left at room temperature for 1 hr. The plates were then washed 3x with 50 μL/well of PBS prior to imaging. Agilent BioTek EL406 Microplate Washer Dispenser was used for the cell fixation and staining protocol. The plates were imaged using GE InCell2200 Cell Analyzer using PerkinElmer Columbus software quantification protocol. The data was analyzed using Genedata, Vortex, and Abase software. A Z-score value of >2 was used for the Prestwick/Selleck compound library and >3 for the SPECS library (based on the negative control population) to determine hit selection.
ECHS1 Fibroblast cells were harvested at 70-80% confluent with trypsin and suspended in DMEM+10% FBS. The suspension was centrifuged at 200x g for 5 min. The suspension was discarded and the pellet was resuspended in the either the 5.5 mM galactose medium (DMEM+10% FBS+5.5 mM of galactose) or the 10 mM propionate medium (DMEM+10% FBS+10 mM sodium propionate). The cells were seeded at 750 cells/well (50 μL) into a 384-well plate containing the test compounds (3-fold serial dilution across 10 plates, starting at 10 uM). For the positive control experiment, the cells were suspended in either the 5.5 mM galactose medium or 10 mM propionate medium+5.5 mM glucose+0.01% DMSO and seeded at 750 cells/well (50 μL) into the blank wells. For the negative control experiment, the cells were suspended in the 5.5 mM galactose or 10 mM propionate medium +0.01% DMSO and seeded at 750 cells/well (50 μL) into the blank wells. The seeded plates were incubated at 37° C. for 96 hours, then 15 μL/well of 16% paraformaldehyde solution was added to the plates and allowed to sit for 15 min to fix the cells. The plates were then washed 3x with 50 μL/well of PBS. The cells were stained with 25 μL/well of a solution of DAPI and left at room temperature for 1 hr. The plates were then washed 3x with 50 μL/well of PBS prior to imaging. Agilent BioTek EL406 Microplate Washer Dispenser was used for the cell fixation and staining protocol. The plates were imaged using GE InCell2200 Cell Analyzer using PerkinElmer Columbus software quantification protocol. The data was analyzed using Genedata, Vortex, and Abase software. A Z-score value of >2 was used for both the Prestwick/Selleck and SPECS library (based on the negative control population) to determine hit selection.

[2] = tested on: ECHS1 patient-derived fibroblasts; assay: Mitochondrial respiration assay (Seahorse); format: cell-based; details: 48 hours; for respiration: glucose or galactose conditions, 1, 5 or 10 μM
From the text: To assess the mechanism of action of hit compounds from the screens of previous Examples, which were based on rescue of viability after metabolic challenge, Seahorse assay was used to measure mitochondrial function in response to treatment at multiple concentrations. The Seahorse assay measures the following parameters: oxygen consumption; basal respiration rate; ATP-linked respiration; maximal respiration; reserve capacity; and ATP production rate. At baseline (no treatment), the ECHS1 patient-derived fibroblasts had lower respiration rates than the control fibroblasts in glucose culturing conditions (20% reduction) and in galactose culturing conditions (30% reduction).
ECHS1 patient-derived fibroblasts and age-matched and sex-matched control fibroblasts were initially grown in standard media (DMEM+2 mM glutamine+1 mM pyruvate) containing 10 mM glucose as the energy source. Cells were seeded into specialized 96-well plates at a density of 10,000 cells per well. One day after plating, cells were treated with the test compounds at the concentrations of 0, 1, 5, or 10 μM. Half of the samples were cultured in 10 mM glucose media in addition to the test compounds. The remaining half of the sample were cultured in 10 mM galactose media, which is a metabolic challenge, in addition to the test compound. Test compounds were incubated with cells for 48 hours. According to the standard Seahorse protocol, the following stressors were added to cells in sequential order: 2 μM oligomycin; 5 μM carbonyl cyanide-4-(trifluoromethoxy)phenylhydrazone (FCCP); 9 μM FCCP; 2 μM rotenone and 2 μM antimycin A. Data were normalized to cell number per well using a Hoechst stain for cell nuclei. Two rounds of experiments were conducted. The results were consistent between the two rounds.

[3] = tested on: ECHS1 knockdown larvae; assay: Fly larva experiment: buoyancy (float/sink); format: in vivo, Drosophila; details: multiple doses fed to larvae; untreated ECHS1 knockdown larvae 30% sank
From the text: To determine whether the Drosophila larvae experiment would be appropriate for further evaluation of compounds, the phenotype induced by ECHSI RNAi was identified. […] It was noted that when extracted from food and placed in 1X PBS, ECHS1 knockdown larvae were buoyant and sank only ˜30% of the time, while age-matched control larvae always sank at 100% frequency.
To test the ability of drug compounds to rescue these two ECHS1 knockdown phenotypes, the larvae were fed with fly food with various concentrations of 10 candidate drugs and first measured for larval size. During the 6 days prior to collection and phenotyping, larvae were raised in the drug food and exposed to drug continuously throughout development. […] Independently, losmapimod, talmapimod, ralimetinib, and neflamapimod were selected at multiple doses and fed to larvae and the population-wide float/sink proportions were assayed. In contrast to untreated ECHS1 knockdown larvae, where 30% sank, treatment with drug compounds nearly doubled the sinking proportions to 60%. Considering the effect of ECHSI on buoyancy in light of its enzymatic function catalyzing the second step of mitochondrial fatty acid beta-oxidation, decreased ECHS1 activity was expected to increase levels of non-metabolized lipid which would increase buoyancy. Thus, compounds were identified that suppressed both quantitative and nominal phenotypes, one of which appears to be directly relevant to the enzymatic function of ECHS1.

Row | SMILES | concentration-dependent curves [1] | respiration [2] | sinking proportions [3] [%] | ATP production rates [2] | increase in maximal respiration ([2]; glucose-treated cells, 10 μM) [%] | maximal respiration ([2]; glucose-treated cells)
1 | CC(C)(C)Cn1c(N)nc2ccc(-c3[nH]c(C(C)(C)C)nc3-c3ccc(F)cc3)nc21 [ralimetinib, 5-[2-tert-butyl-4-(4-fluorophenyl)-1H-imidazol-5-yl]-3-(2,2-dimethylpropyl)imidazo[4,5-b]pyridin-2-amine] | non-linear response | did not result in major changes | 60 | – | – | –
2 | Cc1c(F)cc(C(=O)NC2CC2)cc1-c1ccc(C(=O)NCC(C)(C)C)cn1 [losmapimod, 6-[5-(cyclopropylcarbamoyl)-3-fluoro-2-methylphenyl]-N-(2,2-dimethylpropyl)pyridine-3-carboxamide] | – | did not result in major changes | 60 | – | – | –
3 | C[C@@H]1CN(Cc2ccc(F)cc2)[C@@H](C)CN1C(=O)c1cc2c(C(=O)C(=O)N(C)C)cn(C)c2cc1Cl [talmapimod, 2-[6-chloro-5-[(2R,5S)-4-[(4-fluorophenyl)methyl]-2,5-dimethylpiperazine-1-carbonyl]-1-methylindol-3-yl]-N,N-dimethyl-2-oxoacetamide] | non-linear response | – | 60 | no change | 11 | dose-dependent increase
4 | O=c1ncn2nc(Sc3ccc(F)cc3F)ccc2c1-c1c(Cl)cccc1Cl [neflamapimod, 5-(2,6-dichlorophenyl)-2-(2,4-difluorophenyl)sulfanylpyrimido[1,6-b]pyridazin-6-one] | non-linear response | – | 60 | – | – | –
